In US20240270762A1, “PENICILLIN-BINDING PROTEIN INHIBITORS” (priority 2021, published 2024):
In brackets after ≈: the same amount, converted by molar mass.

Assays:
[1] = target: T1, PBP3 from Escherichia coli (K-12) (Escherichia coli, UniProt P0AD68); test: Bocillin-FL fluorescence polarization competition binding, E. coli PBP3
T1 construct: made in house
Excerpt: (§1) To determine the ability of boronic acid-based test PBP inhibitors to bind Penicillin Binding Proteins (PBPs), Bocillin-FL (fluorescently-labeled penicillin V; ThermoFisher Scientific) was used in a fluorescence polarization (FP) competition binding assay to assess inhibitor binding to PBP3 from Escherichia coli (K-12), PBP3 from Pseudomonas aeruginosa (PAO1), PBP1a and PBP3 from Acinetobacter baumannii (ATCC 19606), and PBP2 from Neisseria gonorrhoeae (FA19). PBPs were cloned and purified as described previously (E. coli PBP3, King, D. T, et al., ACS Infectious Diseases 2015, 1, 175-184; P. aeruginosa PBP3, Han et. al., PNAS 2010, 107 (51), 22002-22007; A. baumannii PBPs, Penwell et. al., Antimicrob. Agents Chemother. 2015, 59 (3), 1680-1689; N. gonorrhoeae PBP2, Singh et. al., J. Biol. Chem. 2019, 294 (38), 14020-14032). To establish assay conditions for competition binding, enzyme titration/saturation binding experiments were initially performed. Bocillin-FL was prepared at 0.2 μM in a buffer comprised of 50 mM Hepes (pH 8.0), 300 mM NaCl and 10% (v/v) glycerol for reactions with E. coli, P. aeruginosa and N. gonorrhoeae PBPs, and 25 mM Tris (pH 8.0), 200 mM NaCl, 10% (v/v) glycerol and 0.005% (v/v) Tween 20 for reactions with A. baumannii PBPs. Saturation binding was performed by mixing 40 μl of PBP solutions ranging in concentrations from 0-24 μM with 40 μl of the 0.2 μM Bocillin-FL solution, in individual wells of a black 384-well microplate. FP was measured immediately upon mixing (Excitation, 490 nm; Emission, 520 nm; g-factor, 0.96), using a Cytation3 (BioTek) microplate reader and measured continuously for up to 120 minutes. The FP response stabilized after 15 minutes for P. aeruginosa and A. baumannii PBP3, 30 minutes for E. coli PBP3 and A. baumannii PBP1a, and less than 1 minute for N. gonorrhoeae PBP2. […] The competition binding assay (80 μl final volume) was validated using beta-lactams and PBPs at final concentrations of: 1.5 μM for E. coli PBP3; 0.75 μM for P. aeruginosa PBP3; 1 μM for A. baumannii PBP1a; 0.2 μM for A. baumannii PBP3; and 0.25 μM for N. gonorrhoeae PBP2. Bocillin-FL was at 0.1 μM (0.05 μM with A. baumannii PBP1a) and beta-lactam concentrations ranged from 0-1,000 μM. E. coli PBP3 was incubated with increasing concentrations of ampicillin in a black 384-well microplate (Corning) for 30 minutes. P. aeruginosa PBP3 was incubated for 15 minutes with aztreonam, whereas A. baumannii PBP1a and PBP3 were incubated for 15 minutes with meropenem, and then Bocillin-FL was added followed immediately by the FP measurement for up to 60 minutes. […] The beta-lactam potency was reported as the concentration of beta-lactam required to reduce the amount of PBP bound-Bocillin-FL by 50% (EC50). […] The EC50 of aztreonam was determined to be <0.5 μM for P. aeruginosa PBP3. […] Binding assays for boronic acid PBP inhibitors were performed in an identical fashion for the respective PBPs.

[2] = target: T2, PBP3 from Pseudomonas aeruginosa (PAO1) (Pseudomonas aeruginosa, UniProt G3XD46); test: Bocillin-FL fluorescence polarization competition binding, P. aeruginosa PBP3; conditions: Binding affinity to P. aeruginosa PBP3; fluorescence polarization competition binding assay using Bocillin-FL; read-out: P. aeruginosa PBP3 Potency
T2 construct: made in house
Excerpt: as §1

E. coli ATCC 25922 = test: microbe, parasite or virus in culture; assay type: cell-based; conditions: Escherichia coli, ATCC25922, read-out: MIC E. coli 25922
E. coli AG100 = test: microbe, parasite or virus in culture; assay type: cell-based; conditions: Escherichia coli, AG100, read-out: MIC E. coli AG100
E. coli 901C = test: microbe, parasite or virus in culture; assay type: cell-based; conditions: Escherichia coli, read-out: MIC E. coli 901C
E. coli D22 = test: microbe, parasite or virus in culture; assay type: cell-based; conditions: Escherichia coli, D22, read-out: MIC E. coli D22
E. coli AG100A = test: Broth microdilution MIC in CAMHB; assay type: cell-based; conditions: Escherichia coli, read-out: MIC E. coli AG100A
K. pneumoniae 848844 = test: microbe, parasite or virus in culture; assay type: cell-based; conditions: Klebsiella pneumoniae, 848844, read-out: MIC K. pneumoniae 848844
K. pneumoniae UMM = test: microbe, parasite or virus in culture; assay type: cell-based; conditions: Klebsiella pneumoniae, read-out: MIC K. pneumoniae UMM
K. pneumoniae SI-117 = test: microbe, parasite or virus in culture; assay type: cell-based; conditions: Klebsiella pneumoniae, SI117, read-out: MIC K. pneumoniae SI-117
P. aeruginosa ATCC 27853 = test: microbe, parasite or virus in culture; assay type: cell-based; conditions: Pseudomonas aeruginosa, ATCC27853, read-out: MIC P. aeruginosa ATCC 27853
A. baumannii ATCC 19606 = test: microbe, parasite or virus in culture; assay type: cell-based; conditions: Acinetobacter baumannii, ATCC19606, read-out: MIC, A. baumannii ATCC 19606
P. aeruginosa ATCC 35151 = test: microbe, parasite or virus in culture; assay type: cell-based; conditions: Pseudomonas aeruginosa, ATCC35151, read-out: MIC P. aeruginosa ATCC 35151
[3] = test system: P. aeruginosa (ΔmexAB-oprM); test: Broth microdilution MIC in CAMHB; assay type: cell-based; conditions: Pseudomonas aeruginosa; read-out: MIC P. aeruginosa ΔmexAB-oprM
[4] = target: T3, PBP1a from Acinetobacter baumannii (ATCC 19606) (Acinetobacter baumannii, UniProt A0ABX6CK30); test: Bocillin-FL fluorescence polarization competition binding, A. baumannii PBP1a
T3 sequence (A0ABX6CK30 1-851): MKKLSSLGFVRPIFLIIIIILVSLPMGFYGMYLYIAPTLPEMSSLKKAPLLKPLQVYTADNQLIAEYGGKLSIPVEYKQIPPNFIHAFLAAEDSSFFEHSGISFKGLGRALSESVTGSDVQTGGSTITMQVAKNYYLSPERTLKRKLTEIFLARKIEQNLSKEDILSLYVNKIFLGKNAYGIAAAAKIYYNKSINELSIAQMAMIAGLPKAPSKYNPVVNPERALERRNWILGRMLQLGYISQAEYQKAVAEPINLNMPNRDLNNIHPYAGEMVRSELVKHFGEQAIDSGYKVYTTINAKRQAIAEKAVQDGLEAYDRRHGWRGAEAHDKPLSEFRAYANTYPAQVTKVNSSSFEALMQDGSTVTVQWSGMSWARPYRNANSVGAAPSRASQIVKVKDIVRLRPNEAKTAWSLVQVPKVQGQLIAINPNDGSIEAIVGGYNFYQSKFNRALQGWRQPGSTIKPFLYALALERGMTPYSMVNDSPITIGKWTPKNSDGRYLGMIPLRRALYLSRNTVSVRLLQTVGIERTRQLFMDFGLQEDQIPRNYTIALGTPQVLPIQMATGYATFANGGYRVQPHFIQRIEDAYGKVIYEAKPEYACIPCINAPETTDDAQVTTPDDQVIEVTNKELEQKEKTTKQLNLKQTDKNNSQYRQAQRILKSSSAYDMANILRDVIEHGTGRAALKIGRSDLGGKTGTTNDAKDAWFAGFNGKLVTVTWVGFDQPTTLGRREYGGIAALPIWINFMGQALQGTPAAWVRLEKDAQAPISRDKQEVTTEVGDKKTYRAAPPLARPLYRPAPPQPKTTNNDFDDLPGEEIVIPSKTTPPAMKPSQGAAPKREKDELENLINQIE
Excerpt: as §1

T2 sequence (G3XD46 whole entry): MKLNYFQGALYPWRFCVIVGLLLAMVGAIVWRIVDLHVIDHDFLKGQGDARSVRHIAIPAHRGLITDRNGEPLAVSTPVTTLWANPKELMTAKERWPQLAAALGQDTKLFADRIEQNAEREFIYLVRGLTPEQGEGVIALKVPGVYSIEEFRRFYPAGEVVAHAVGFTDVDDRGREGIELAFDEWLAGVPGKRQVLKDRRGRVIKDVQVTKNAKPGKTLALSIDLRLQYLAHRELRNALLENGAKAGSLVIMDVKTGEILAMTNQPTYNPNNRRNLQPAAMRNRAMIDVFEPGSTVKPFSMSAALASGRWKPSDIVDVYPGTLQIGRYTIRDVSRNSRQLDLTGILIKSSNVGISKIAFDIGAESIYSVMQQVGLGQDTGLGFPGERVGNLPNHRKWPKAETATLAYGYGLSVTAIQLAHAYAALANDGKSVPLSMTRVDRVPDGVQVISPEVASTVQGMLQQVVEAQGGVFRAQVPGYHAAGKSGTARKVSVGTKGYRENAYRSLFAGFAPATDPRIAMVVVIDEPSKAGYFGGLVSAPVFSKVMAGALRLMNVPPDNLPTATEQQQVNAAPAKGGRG
T1 sequence (P0AD68 1-577): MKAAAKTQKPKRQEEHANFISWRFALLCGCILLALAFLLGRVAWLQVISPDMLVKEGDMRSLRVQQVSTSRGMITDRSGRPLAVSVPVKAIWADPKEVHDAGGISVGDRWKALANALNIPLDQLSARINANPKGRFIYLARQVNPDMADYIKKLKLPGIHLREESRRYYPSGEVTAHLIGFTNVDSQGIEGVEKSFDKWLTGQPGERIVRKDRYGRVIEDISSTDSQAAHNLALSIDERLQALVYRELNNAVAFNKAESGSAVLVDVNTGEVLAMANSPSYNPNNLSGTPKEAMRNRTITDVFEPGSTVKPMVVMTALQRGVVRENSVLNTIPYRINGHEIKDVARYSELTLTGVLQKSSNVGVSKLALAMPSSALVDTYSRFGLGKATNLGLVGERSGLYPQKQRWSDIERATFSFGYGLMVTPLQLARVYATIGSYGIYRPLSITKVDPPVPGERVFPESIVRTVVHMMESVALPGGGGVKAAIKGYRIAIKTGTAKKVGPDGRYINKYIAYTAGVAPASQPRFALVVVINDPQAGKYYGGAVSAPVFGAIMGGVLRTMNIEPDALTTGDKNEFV

O=C(N[C@H](C(=O)N[C@H]1Cc2cccc(C(=O)O)c2OB1O)c1ccc(P(=O)(O)O)cc1)c1cnc2ccnn2c1 (single isomer, unassigned) [Example 186]
EC50 [1]: > 250 µM | IC50 [2]: 10 to 50 µM | MIC (E. coli ATCC 25922): > 128 µg/mL | MIC (E. coli AG100): > 128 µg/mL | MIC (E. coli 901C): 8 to 16 µg/mL (≈ 14.2 to 28.3 µM) | MIC (E. coli D22): > 128 µg/mL | MIC (E. coli AG100A): > 128 µg/mL | MIC (K. pneumoniae 848844): > 128 µg/mL | MIC (K. pneumoniae UMM): > 128 µg/mL | MIC (K. pneumoniae SI-117): > 128 µg/mL | MIC (P. aeruginosa ATCC 27853): > 128 µg/mL | MIC (A. baumannii ATCC 19606): > 128 µg/mL | MIC (P. aeruginosa ATCC 35151): 2 to 4 µg/mL (≈ 3.54 to 7.08 µM) | MIC [3]: > 128 µg/mL

C[C@@H](O)[C@H]1C(=O)N2C(C(=O)O)=C(S[C@@H]3CN[C@H](C(=O)N(C)C)C3)[C@H](C)[C@H]12 [meropenem, reference compound]
EC50 [4]: < 0.5 µM
